Legend:
Assay in all cases: KINOMEscan
Type in all cases: binding
AAK1 = biological target: T1, AAK1 (Homo sapiens, UniProt Q2M2I8)
T1 construct: purchased Eurofins DiscoverX KINOMEscan
Outline: (§1)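 Binding reactions proceed for 1 h at room temperature. Kinase not bound by compound is captured on immobilized affinity ligand and quantified by qPCR; Kd is fitted over 12 half-log concentrations, top 33 μM.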

ABL1 (H396P)-non-P = biological target: T2, ABL1 (H396P)-non-P (Homo sapiens, UniProt P00519, H396P)
T2 construct: purchased Eurofins DiscoverX KINOMEscan
Outline: as §1

ACVR2B = biological target: T3, ACVR2B (Homo sapiens, UniProt Q13705)
T3 construct: purchased Eurofins DiscoverX KINOMEscan
Outline: (§2)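 Read-out is qPCR of kinase not bound to the test compound, recovered by capture on an immobilized affinity ligand after a 1 h room-temperature binding step. Dissociation constants came from 12 half-log dilutions starting at 33 μM.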

AKT2 = biological target: T4, AKT2 (Homo sapiens, UniProt P31751)
T4 construct: purchased Eurofins DiscoverX KINOMEscan
Outline: as §1

ANKK1 = biological target: T5, ANKK1 (Homo sapiens, UniProt Q8NFD2)
T5 construct: purchased Eurofins DiscoverX KINOMEscan
Outline: as §2

AURKB = biological target: T6, AURKB (Homo sapiens, UniProt Q96GD4)
T6 construct: purchased Eurofins DiscoverX KINOMEscan
T6 sequence (Q96GD4 whole entry): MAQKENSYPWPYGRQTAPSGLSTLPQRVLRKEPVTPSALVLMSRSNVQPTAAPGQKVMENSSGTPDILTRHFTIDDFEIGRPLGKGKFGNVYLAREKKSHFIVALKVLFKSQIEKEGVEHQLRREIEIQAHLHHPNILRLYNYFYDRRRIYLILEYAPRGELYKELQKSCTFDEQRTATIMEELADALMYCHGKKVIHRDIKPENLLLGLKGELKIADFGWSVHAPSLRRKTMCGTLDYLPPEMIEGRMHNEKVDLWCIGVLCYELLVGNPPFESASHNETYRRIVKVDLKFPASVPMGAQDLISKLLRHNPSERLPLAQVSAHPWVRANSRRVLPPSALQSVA
Outline: as §1

BRAF = biological target: T7, BRAF (Homo sapiens, UniProt P15056)
T7 construct: purchased Eurofins DiscoverX KINOMEscan
Outline: as §2

CDK4-cyclinD1 = biological target: T8, CDK4-cyclinD1 (Homo sapiens, UniProt P11802)
T8 construct: purchased Eurofins DiscoverX KINOMEscan
Outline: as §2

CSNK1D = biological target: T9, CSNK1D (Homo sapiens, UniProt P48730)
T9 construct: purchased Eurofins DiscoverX KINOMEscan
Outline: as §2

DCAMKL3 = biological target: T10, DCAMKL3 (Homo sapiens, UniProt Q9C098)
T10 construct: purchased Eurofins DiscoverX KINOMEscan
Outline: as §1

EPHB6 = biological target: T11, EPHB6 (Homo sapiens, UniProt O15197)
T11 construct: purchased Eurofins DiscoverX KINOMEscan
Outline: as §1

ERBB4 = biological target: T12, ERBB4 (Homo sapiens, UniProt Q15303)
T12 construct: purchased Eurofins DiscoverX KINOMEscan
Outline: as §2

ERK8 = biological target: T13, ERK8 (Homo sapiens, UniProt Q8TD08)
T13 construct: purchased Eurofins DiscoverX KINOMEscan
Outline: as §2

GRK4 = biological target: T14, GRK4 (Homo sapiens, UniProt P32298)
T14 construct: purchased Eurofins DiscoverX KINOMEscan
T14 sequence (P32298 whole entry): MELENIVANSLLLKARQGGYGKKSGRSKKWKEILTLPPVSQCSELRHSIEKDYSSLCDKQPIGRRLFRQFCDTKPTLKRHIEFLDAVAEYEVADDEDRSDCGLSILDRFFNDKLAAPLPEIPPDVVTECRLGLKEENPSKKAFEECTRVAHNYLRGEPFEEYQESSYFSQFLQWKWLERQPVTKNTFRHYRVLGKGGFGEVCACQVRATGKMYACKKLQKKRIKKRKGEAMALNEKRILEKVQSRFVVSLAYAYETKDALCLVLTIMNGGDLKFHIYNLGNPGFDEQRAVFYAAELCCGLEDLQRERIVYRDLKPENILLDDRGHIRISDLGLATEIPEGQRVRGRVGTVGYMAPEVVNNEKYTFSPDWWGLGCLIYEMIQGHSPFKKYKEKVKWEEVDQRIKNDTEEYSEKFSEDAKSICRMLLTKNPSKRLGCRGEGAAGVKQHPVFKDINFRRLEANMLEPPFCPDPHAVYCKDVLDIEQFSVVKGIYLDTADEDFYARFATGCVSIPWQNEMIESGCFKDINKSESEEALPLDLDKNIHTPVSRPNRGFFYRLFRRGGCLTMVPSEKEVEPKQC
Outline: as §1

HCK = biological target: T15, HCK (Homo sapiens, UniProt P08631)
T15 construct: purchased Eurofins DiscoverX KINOMEscan
Outline: as §2

IKK-β = biological target: T16, IKK-β (Homo sapiens, UniProt O14920)
T16 construct: purchased Eurofins DiscoverX KINOMEscan
Outline: as §2

ITK = biological target: T17, ITK (Homo sapiens, UniProt Q08881)
T17 construct: purchased Eurofins DiscoverX KINOMEscan
T17 sequence (Q08881 whole entry): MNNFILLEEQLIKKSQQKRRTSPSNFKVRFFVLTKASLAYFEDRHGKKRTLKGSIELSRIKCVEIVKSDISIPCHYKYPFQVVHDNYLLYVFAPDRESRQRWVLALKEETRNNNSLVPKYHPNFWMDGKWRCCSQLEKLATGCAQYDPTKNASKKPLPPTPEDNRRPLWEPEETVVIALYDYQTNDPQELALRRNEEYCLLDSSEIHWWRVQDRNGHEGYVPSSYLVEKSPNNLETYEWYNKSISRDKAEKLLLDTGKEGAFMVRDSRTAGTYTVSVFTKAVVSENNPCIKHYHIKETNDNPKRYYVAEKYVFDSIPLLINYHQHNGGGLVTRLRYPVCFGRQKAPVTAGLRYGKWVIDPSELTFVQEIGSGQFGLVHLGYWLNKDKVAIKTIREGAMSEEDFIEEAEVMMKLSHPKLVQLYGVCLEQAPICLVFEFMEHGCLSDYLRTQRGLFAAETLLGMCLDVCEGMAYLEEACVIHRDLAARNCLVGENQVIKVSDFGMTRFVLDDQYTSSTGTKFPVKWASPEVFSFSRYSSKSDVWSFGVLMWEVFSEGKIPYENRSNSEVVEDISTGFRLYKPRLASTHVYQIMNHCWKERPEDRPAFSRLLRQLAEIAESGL
Outline: as §2

KIT (V559D, T670I) = biological target: T18, KIT (V559D, T670I) (Homo sapiens, UniProt P10721, T670I/V559D)
T18 construct: purchased Eurofins DiscoverX KINOMEscan
Outline: as §1

MAPKAPK2 = biological target: T19, MAPKAPK2 (Homo sapiens, UniProt P49137)
T19 construct: purchased Eurofins DiscoverX KINOMEscan
Outline: as §1

MRCKA = biological target: T20, MRCKA (Homo sapiens, UniProt Q5VT25)
T20 construct: purchased Eurofins DiscoverX KINOMEscan
Outline: as §1

MST3 = biological target: T21, MST3 (Homo sapiens, UniProt Q9Y6E0)
T21 construct: purchased Eurofins DiscoverX KINOMEscan
Outline: as §1

NEK6 = biological target: T22, NEK6 (Homo sapiens, UniProt Q9HC98)
T22 construct: purchased Eurofins DiscoverX KINOMEscan
Outline: as §1

PCTK1 = biological target: T23, PCTK1 (Homo sapiens, UniProt Q00536)
T23 construct: purchased Eurofins DiscoverX KINOMEscan
Outline: as §1

PDGFRA = biological target: T24, PDGFRA (Homo sapiens, UniProt P16234)
T24 construct: purchased Eurofins DiscoverX KINOMEscan
Outline: as §2

PIP5K2C = biological target: T25, PIP5K2C (Homo sapiens, UniProt Q8TBX8)
T25 construct: purchased Eurofins DiscoverX KINOMEscan
T25 sequence (Q8TBX8 whole entry): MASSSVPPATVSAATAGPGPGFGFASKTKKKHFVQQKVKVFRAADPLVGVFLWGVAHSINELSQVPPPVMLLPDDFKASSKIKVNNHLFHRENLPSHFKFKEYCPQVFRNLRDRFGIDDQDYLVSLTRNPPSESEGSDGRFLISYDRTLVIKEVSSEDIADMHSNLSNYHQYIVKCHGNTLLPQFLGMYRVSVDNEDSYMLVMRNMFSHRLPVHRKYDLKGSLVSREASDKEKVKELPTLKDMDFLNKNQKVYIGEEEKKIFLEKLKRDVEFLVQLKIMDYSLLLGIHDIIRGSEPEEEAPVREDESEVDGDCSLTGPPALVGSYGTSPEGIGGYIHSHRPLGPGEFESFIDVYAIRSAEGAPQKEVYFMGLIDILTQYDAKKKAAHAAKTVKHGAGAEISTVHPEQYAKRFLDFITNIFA
Outline: as §2

PRKCD = biological target: T26, PRKCD (Homo sapiens, UniProt Q05655)
T26 construct: purchased Eurofins DiscoverX KINOMEscan
T26 sequence (Q05655 whole entry): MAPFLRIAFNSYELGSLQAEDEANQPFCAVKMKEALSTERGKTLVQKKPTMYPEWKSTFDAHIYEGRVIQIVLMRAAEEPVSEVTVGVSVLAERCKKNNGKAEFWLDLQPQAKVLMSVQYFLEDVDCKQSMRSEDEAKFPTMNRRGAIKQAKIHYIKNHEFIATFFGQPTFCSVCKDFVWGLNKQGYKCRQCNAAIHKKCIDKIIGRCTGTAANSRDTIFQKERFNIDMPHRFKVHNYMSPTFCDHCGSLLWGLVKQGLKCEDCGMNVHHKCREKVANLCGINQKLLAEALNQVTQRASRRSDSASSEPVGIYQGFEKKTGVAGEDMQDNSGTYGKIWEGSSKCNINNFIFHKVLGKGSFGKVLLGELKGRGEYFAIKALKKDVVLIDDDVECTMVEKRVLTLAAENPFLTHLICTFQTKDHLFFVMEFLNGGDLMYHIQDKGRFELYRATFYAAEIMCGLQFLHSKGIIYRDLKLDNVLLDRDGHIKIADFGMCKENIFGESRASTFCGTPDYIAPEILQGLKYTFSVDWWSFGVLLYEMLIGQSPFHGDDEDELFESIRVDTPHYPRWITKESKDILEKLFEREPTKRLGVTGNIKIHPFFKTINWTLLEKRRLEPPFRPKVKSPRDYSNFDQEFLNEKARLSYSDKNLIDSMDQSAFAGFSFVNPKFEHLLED
Outline: as §1

PRKCI = biological target: T27, PRKCI (Homo sapiens, UniProt P41743)
T27 construct: purchased Eurofins DiscoverX KINOMEscan
T27 sequence (P41743 whole entry): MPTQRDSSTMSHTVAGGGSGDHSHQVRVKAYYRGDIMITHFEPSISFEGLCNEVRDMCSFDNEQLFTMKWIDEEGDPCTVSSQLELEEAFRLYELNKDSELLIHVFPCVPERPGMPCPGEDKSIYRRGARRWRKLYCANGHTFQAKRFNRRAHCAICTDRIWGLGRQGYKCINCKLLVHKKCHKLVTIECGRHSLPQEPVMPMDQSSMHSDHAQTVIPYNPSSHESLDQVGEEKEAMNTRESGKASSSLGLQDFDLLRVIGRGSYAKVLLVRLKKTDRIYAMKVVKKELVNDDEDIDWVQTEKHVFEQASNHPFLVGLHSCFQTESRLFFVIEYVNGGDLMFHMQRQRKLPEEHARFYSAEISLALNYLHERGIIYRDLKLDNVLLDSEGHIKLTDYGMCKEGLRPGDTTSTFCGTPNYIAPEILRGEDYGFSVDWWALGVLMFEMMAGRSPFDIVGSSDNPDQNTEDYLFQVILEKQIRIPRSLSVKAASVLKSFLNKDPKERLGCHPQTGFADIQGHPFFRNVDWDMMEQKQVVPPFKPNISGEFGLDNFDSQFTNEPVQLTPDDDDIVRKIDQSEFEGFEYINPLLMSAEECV
Outline: as §1

PRKD1 = biological target: T28, PRKD1 (Homo sapiens, UniProt Q15139)
T28 construct: purchased Eurofins DiscoverX KINOMEscan
Outline: as §1

PRKX = biological target: T29, PRKX (Homo sapiens, UniProt P51817)
T29 construct: purchased Eurofins DiscoverX KINOMEscan
Outline: as §1

RET (M918T) = biological target: T30, RET (M918T) (Homo sapiens, UniProt P07949, M918T)
T30 construct: purchased Eurofins DiscoverX KINOMEscan
Outline: as §1

RIPK5 = biological target: T31, RIPK5 (Homo sapiens, UniProt Q6XUX3)
T31 construct: purchased Eurofins DiscoverX KINOMEscan
Outline: as §1

SIK = biological target: T32, SIK (Homo sapiens, UniProt P57059)
T32 construct: purchased Eurofins DiscoverX KINOMEscan
Outline: as §2

SYK = biological target: T33, SYK (Homo sapiens, UniProt P43405)
T33 construct: purchased Eurofins DiscoverX KINOMEscan
Outline: as §2

TRKB = biological target: T34, TRKB (Homo sapiens, UniProt Q16620)
T34 construct: purchased Eurofins DiscoverX KINOMEscan
T34 sequence (Q16620 32-822): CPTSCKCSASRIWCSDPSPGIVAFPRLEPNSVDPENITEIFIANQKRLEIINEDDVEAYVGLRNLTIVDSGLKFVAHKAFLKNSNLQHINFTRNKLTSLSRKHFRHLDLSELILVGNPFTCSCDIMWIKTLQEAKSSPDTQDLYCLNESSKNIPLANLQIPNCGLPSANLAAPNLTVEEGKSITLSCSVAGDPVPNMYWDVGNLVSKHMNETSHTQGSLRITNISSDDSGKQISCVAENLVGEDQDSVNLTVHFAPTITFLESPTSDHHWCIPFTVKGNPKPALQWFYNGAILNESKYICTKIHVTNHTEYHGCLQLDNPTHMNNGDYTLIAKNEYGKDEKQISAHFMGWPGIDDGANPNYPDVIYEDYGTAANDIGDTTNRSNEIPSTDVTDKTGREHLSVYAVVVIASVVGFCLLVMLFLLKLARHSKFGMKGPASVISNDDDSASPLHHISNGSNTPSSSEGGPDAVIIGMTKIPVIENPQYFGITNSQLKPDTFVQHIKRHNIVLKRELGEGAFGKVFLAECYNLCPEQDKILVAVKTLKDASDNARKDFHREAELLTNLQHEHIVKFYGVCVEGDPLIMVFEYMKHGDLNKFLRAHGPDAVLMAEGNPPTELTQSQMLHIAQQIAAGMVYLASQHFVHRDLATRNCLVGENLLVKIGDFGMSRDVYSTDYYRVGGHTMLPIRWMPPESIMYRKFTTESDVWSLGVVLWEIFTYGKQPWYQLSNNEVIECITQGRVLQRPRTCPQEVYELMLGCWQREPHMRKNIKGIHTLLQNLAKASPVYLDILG
Outline: as §1

TSSK1B = biological target: T35, TSSK1B (Homo sapiens, UniProt Q9BXA7)
T35 construct: purchased Eurofins DiscoverX KINOMEscan
Outline: as §1

TYRO3 = biological target: T36, TYRO3 (Homo sapiens, UniProt Q06418)
T36 construct: purchased Eurofins DiscoverX KINOMEscan
T36 sequence (Q06418 41-890): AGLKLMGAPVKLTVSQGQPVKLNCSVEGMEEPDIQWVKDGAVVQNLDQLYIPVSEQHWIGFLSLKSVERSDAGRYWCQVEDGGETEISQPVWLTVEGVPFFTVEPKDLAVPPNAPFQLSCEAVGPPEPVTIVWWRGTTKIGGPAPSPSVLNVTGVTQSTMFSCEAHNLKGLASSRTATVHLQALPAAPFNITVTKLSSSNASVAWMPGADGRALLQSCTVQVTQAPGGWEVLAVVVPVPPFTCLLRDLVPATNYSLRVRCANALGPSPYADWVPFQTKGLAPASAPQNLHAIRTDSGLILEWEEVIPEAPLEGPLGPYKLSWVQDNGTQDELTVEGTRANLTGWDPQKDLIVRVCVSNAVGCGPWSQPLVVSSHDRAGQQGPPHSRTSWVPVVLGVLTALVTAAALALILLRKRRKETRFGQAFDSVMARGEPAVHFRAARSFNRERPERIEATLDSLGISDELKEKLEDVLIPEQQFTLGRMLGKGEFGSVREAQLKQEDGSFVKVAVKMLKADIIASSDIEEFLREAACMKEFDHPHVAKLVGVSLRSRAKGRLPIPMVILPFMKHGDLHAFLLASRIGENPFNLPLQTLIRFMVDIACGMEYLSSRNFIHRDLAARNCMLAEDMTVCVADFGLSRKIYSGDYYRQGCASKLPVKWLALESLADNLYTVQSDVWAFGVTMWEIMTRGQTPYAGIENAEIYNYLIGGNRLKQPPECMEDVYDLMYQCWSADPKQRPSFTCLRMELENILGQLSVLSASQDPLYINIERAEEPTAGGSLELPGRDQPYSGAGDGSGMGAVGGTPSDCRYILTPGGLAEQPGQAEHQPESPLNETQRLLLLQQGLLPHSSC
Outline: as §1

VRK2 = biological target: T37, VRK2 (Homo sapiens, UniProt Q86Y07)
T37 construct: purchased Eurofins DiscoverX KINOMEscan
Outline: as §1

WEE2 = biological target: T38, WEE2 (Homo sapiens, UniProt P0C1S8)
T38 construct: purchased Eurofins DiscoverX KINOMEscan
Outline: as §1

YES = biological target: T39, YES (Homo sapiens, UniProt P07947)
T39 construct: purchased Eurofins DiscoverX KINOMEscan
Outline: as §1

YSK1 = biological target: T40, YSK1 (Homo sapiens, UniProt O00506)
T40 construct: purchased Eurofins DiscoverX KINOMEscan
Outline: as §1

O=C1Nc2c(cc([N+](=O)[O-])c3c2CCCC3)C1=NO [Compound 5d, 3-(Hydroxyimino)-5-nitro-1,3,6,7,8,9-hexahydro-2H-benzo[g]indol-2-one]
inhibition at 10 µM (AAK1): 91.8%
inhibition at 10 µM (ABL1 (H396P)-non-P): 65%
inhibition at 10 µM (ACVR2B): 25%
inhibition at 10 µM (AKT2): 0%
inhibition at 10 µM (ANKK1): 8%
inhibition at 10 µM (AURKB): 90.7%
inhibition at 10 µM (BRAF): 28%
inhibition at 10 µM (CDK4-cyclinD1): 9%
inhibition at 10 µM (CSNK1D): 79%
inhibition at 10 µM (DCAMKL3): 10%
inhibition at 10 µM (EPHB6): 80%
inhibition at 10 µM (ERBB4): 4%
inhibition at 10 µM (ERK8): 50%
inhibition at 10 µM (GRK4): 34%
inhibition at 10 µM (HCK): 20%
inhibition at 10 µM (IKK-β): 50%
inhibition at 10 µM (ITK): 0%
inhibition at 10 µM (KIT (V559D, T670I)): 55%
inhibition at 10 µM (MAPKAPK2): 9%
inhibition at 10 µM (MRCKA): 17%
inhibition at 10 µM (MST3): 62%
inhibition at 10 µM (NEK6): 17%
inhibition at 10 µM (PCTK1): 5%
inhibition at 10 µM (PDGFRA): 0%
inhibition at 10 µM (PIP5K2C): 40%
inhibition at 10 µM (PRKCD): 10%
inhibition at 10 µM (PRKCI): 49%
inhibition at 10 µM (PRKD1): 61%
inhibition at 10 µM (PRKX): 0%
inhibition at 10 µM (RET (M918T)): 8%
inhibition at 10 µM (RIPK5): 17%
inhibition at 10 µM (SIK): 9%
inhibition at 10 µM (SYK): 20%
inhibition at 10 µM (TRKB): 34%
inhibition at 10 µM (TSSK1B): 0%
inhibition at 10 µM (TYRO3): 18%
inhibition at 10 µM (VRK2): 0%
inhibition at 10 µM (WEE2): 0%
inhibition at 10 µM (YES): 26%
inhibition at 10 µM (YSK1): 10%

Reference: paper PMC12300041, “Tricyclic Isatin Derivatives as Anti-Inflammatory Compounds with High Kinase Binding Affinity” (Molecules, 2025)
